Like-named read-outs stand apart in the source and are kept apart here.
Key:
P. inhibens [1] = assay: Antibacterial activity (growth inhibition, OD600); assay type: cell-based, Phaeobacter inhibens DSM 17395; conditions: 0.16 µg/mL, 48 h, positive control
Experimental: (§1) To assess antimicrofouling activity, we selected five marine bacterial species as models: Marinobacter hydrocarbonoclasticus DSM 8798 (ATCC 49840), C. marina DSM 4741, Phaeobacter inhibens DSM 17,395, Pseusooceanicola batsensis DSM 15,984, and Micrococcus luteus DSM 20030 (ATCC 4698) ([Michael et al., 2016]). These strains, sourced from DSMZ (Leibniz Institute DSMZ—German Collection of Microorganisms and Cell Cultures), were cultured in liquid marine broth (Carl Roth GmbH, Karlsruhe, Germany) with agitation at 180 rpm or on agar-supplemented marine broth. Incubation temperatures were set at 28°C for M. hydrocarbonoclasticus and Cobetia marina, 30°C for P. inhibens and P. batsensis, while M. luteus was maintained at 37°C in Brain Heart Infusion broth (BHI, Becton Dickinson, GmbH, Heidelberg, Germany) under similar agitation conditions.
(§2) The antibacterial efficacy of compounds (1) and (2) was assessed in 96-well polystyrene flat-bottom microplates (Nunclon Delta Surface, Thermo Scientific, Roskilde, Denmark) following established procedures ([Bauermeister et al., 2019]). In the initial screening, bacterial overnight cultures were diluted to an optical density (OD600nm) of 0.2 and incubated statically at appropriate temperatures. The cultures were treated with the following final concentrations per well: 31.25, 15.60, 7.81, 3.91, 1.95, and 0.98 μg/mL (2-fold serial dilutions) of the compounds, solubilized in DMSO, or left untreated. After 24 h (M. hydrocarbonoclasticus, C. marina) or 48 h (P. batsensis, P. inhibens, M. luteus) incubation, optical density at 600 nm (OD600) was measured using a Molecular Devices Spectra Max 190. Growth inhibition percentages were calculated relatively to untreated bacterial species, using DMSO as a negative control. CuSO4 (0.16 μg/mL), a recognized antifouling agent, was used as positive control. All assays were conducted in triplicate, and the results represent the mean and standard error of the mean (SEM). Statistical analysis was carried out using GraphPad Prism 8.0.2 (San Diego, CA, United States), employing one-way ANOVA followed by Dunnett’s multiple comparisons test against the negative control.

M. hydrocarbonoclasticus [2] = assay: Antibiofilm activity (inhibition of biofilm formation); assay type: cell-based, Marinobacter hydrocarbonoclasticus DSM 8798; conditions: 0.16 µg/mL, 24 h, positive control
Experimental: as §1
(§3) The antibiofilm potential of compounds (1) and (2) against the five marine bacterial species was investigated in 96-well polystyrene flat-bottom microplates (Nunclon Delta Surface, Thermo Scientific, Roskilde, Denmark), as described previously ([Bauermeister et al., 2019]; [Pereira et al., 2020]). In the initial screening, bacterial overnight cultures were diluted to an OD600 of 0.2 and incubated statically at appropriate temperatures. The cultures were tested at 31.25, 15.60, 7.81, 3.91, 1.95, 0.98 μg/mL concentrations (2-fold serial dilutions) of compounds (1) and (2), solubilized in DMSO, or left untreated. After 24 h (M. hydrocarbonoclasticus, C. marina) or 48 h (P. batsensis, P. inhibens, M. luteus) incubation, OD600 was measured. The planktonic cells and media were discarded, and the wells were washed twice with deionized water. Biofilms were fixed, stained, and quantified by measuring the OD600 after solubilization with acetic acid. Biofilm inhibition percentages were calculated relative to untreated bacterial species, using DMSO as a negative control and CuSO4 (0.16 μg/mL), as a positive control. All assays were performed in triplicate, and the results represent the mean and standard error of the mean (SEM). Statistical analysis was conducted using GraphPad Prism 8.0.2, employing one-way ANOVA followed by Dunnett’s multiple comparisons test against the negative control.

M. luteus [3] = assay: Antibacterial activity (growth inhibition, OD600); assay type: cell-based, Micrococcus luteus DSM 20030; conditions: 0.16 µg/mL, 48 h, positive control
Experimental: as §1, §2

P. batsensis [4] = assay: Antibiofilm activity (inhibition of biofilm formation); assay type: cell-based, Pseudo-oceanicola batsensis DSM 15984; conditions: 0.16 µg/mL, 48 h, positive control
Experimental: as §1, §3

P. batsensis [5] = assay: Antibacterial activity (growth inhibition, OD600); assay type: cell-based, Pseudo-oceanicola batsensis DSM 15984; conditions: 0.16 µg/mL, 48 h, positive control
Experimental: as §1, §2

M. luteus [6] = assay: Antibiofilm activity (inhibition of biofilm formation); assay type: cell-based, Micrococcus luteus DSM 20030; conditions: 0.16 µg/mL, 48 h, positive control
Experimental: as §1, §3

C. marina [7] = assay: Antibacterial activity (growth inhibition, OD600); assay type: cell-based, Cobetia marina DSM 4741; conditions: 0.16 µg/mL, 24 h, positive control
Experimental: as §1, §2

P. inhibens [8] = assay: Antibiofilm activity (inhibition of biofilm formation); assay type: cell-based, Phaeobacter inhibens DSM 17395; conditions: 0.16 µg/mL, 48 h, positive control
Experimental: as §1, §3

M. hydrocarbonoclasticus [9] = assay: Antibacterial activity (growth inhibition, OD600); assay type: cell-based, Marinobacter hydrocarbonoclasticus DSM 8798; conditions: 0.16 µg/mL, 24 h, positive control
Experimental: as §1, §2

C. marina [10] = assay: Antibiofilm activity (inhibition of biofilm formation); assay type: cell-based, Cobetia marina DSM 4741; conditions: 0.16 µg/mL, 24 h, positive control
Experimental: as §1, §3

Aliivibrio fischeri = assay: Inhibition of bioluminescence (ISO 11348-3 micro adaptation); assay type: cell-based; conditions: 100 µg/mL
Experimental: The in vivo evaluation of compounds (1) and (2) for acute toxicity was performed towards marine bacterium Aliivibrio fischeri, and planktonic crustacean Daphnia magna. The chronic ecotoxicity tests were evaluated using algae Pseudokirchneriella subcapitata and Phaeodactylum tricornutum.
The inhibition of bioluminescence of the marine bacterium A. fischeri, were studied following a micro adaptation of the standard procedure ISO 11348-3 (“Water Quality-Determination of the inhibitory effect of water samples on the light emission of Vibrio fischeri - Luminescent bacteria test–using freeze-dried bacteria method”). Briefly, frozen lyophilized bacterial cells (Abraxis, Warminster, PA, United States) were reconstituted in Reconstitution Solution, supplied by the manufacturer of the Abratox kit (Abraxis). Madeirone (1) and neomarinone (2) were dissolved in DMSO and tested at the concentrations of 100, 50, 25, 12.5, 6.25, 3.13, and 1.56 μg/mL. The emitted luminescence was measured using a luminometer at time 0 min and at different exposure times (5, 15 and 30 min) and the percentage of inhibition of bioluminescence was determined. Each experiment was performed in duplicate and the results of three independent experiments with <10% SD are presented. Phenol was used as a positive control.

Oral rat = conditions: from reported data; ref Tišler and Zagorc-končan, 2003; cited from earlier work
Fish Orcorhynchus mykiss = conditions: ref Tišler and Zagorc-končan, 2003; cited from earlier work
Daphnia magna [11] = conditions: ref Tišler and Zagorc-končan, 2003; cited from earlier work
Daphnia magna [12] = conditions: cited from earlier work
Oral rat/rabit = system: Oral rat/rabit; design: method as in Tišler and Zagorc-končan, 2003; conditions: ref Tišler and Zagorc-končan, 2003; cited from earlier work
[13] = system: Alga Scenedesmus quadricauda; conditions: cited from earlier work
M. edulis = system: M. edulis; design: method as in Davies et al., 1997; conditions: against M. edulis; ref Davies et al., 1997; cited from earlier work

## O=S(=O)([O-])[O-].[Cu+2] [CuSO4, reference compound]
P. inhibens [1]
  Growth inhibition (%) P. inhibens: 66.2 ± 5.6 %
M. hydrocarbonoclasticus [2]
  Biofilm inhibition (%) M. hydrocarbonoclasticus: no observable inhibition and N.I.
M. luteus [3]
  Growth inhibition (%) M. luteus: No inhibition and N.I.
P. batsensis [4]
  Biofilm inhibition (%) P. batsensis: 41.4 ± 0.9%
P. batsensis [5]
  Growth inhibition (%) P. batsensis: 44.8 ± 6.3 %
M. luteus [6]
  Biofilm inhibition (%) M. luteus: no observable inhibition and N.I.
C. marina [7]
  Growth inhibition (%) C. marina: No inhibition and N.I.
P. inhibens [8]
  Biofilm inhibition (%) P. inhibens: 12.9 ± 6.4%
M. hydrocarbonoclasticus [9]
  Growth inhibition (%) M. hydrocarbonoclasticus: 35.8 ± 0.8 %
C. marina [10]
  Biofilm inhibition (%) C. marina: no observable inhibition and N.I.

## Oc1ccccc1 [Phenol, reference compound]
Aliivibrio fischeri
  Inhibition (%) A. fischeri (bioluminescence): 19.8%

## [Cu] [compound 8, copper]
Oral rat
  ATE category: 3 (category 3, 50 < ATE ≤300 mg/kg, labeled as (“Toxic if swallowed”))
Fish Orcorhynchus mykiss
  Fish Orcorhynchus mykiss 96 h LC50: 0.48 µg/mL
Daphnia magna [11]
  Daphnia magna 48 h LC50: 0.030 µg/mL
Daphnia magna [12]; in vivo
  Daphnia magna 21 days NOEC: 0.015 mg/L
Oral rat/rabit
  Oral rat/rabit LD50: 140 mg/kg
[13]
  Alga Scenedesmus quadricauda 21 days NOEC: 0.18 mg/L

## [As] [compound 9, arsenic]
Oral rat
  ATE category: 2 (category 2, 5 < ATE ≤50 mg/kg, also classified as “Fatal if swallowed”)
Fish Orcorhynchus mykiss
  Fish Orcorhynchus mykiss 96 h LC50: 15.3 µg/mL
Daphnia magna [11]
  Daphnia magna 48 h LC50: 2.5 µg/mL
Daphnia magna [12]; ref Tišler and Zagorc-končan, 2003
  Daphnia magna 21 days NOEC: 1.85 mg/L
Oral rat/rabit
  Oral rat/rabit LD50: 12 mg/kg
[13]; footnote d as printed, ref Tišler and Zagorc-končan, 2003
  Alga Scenedesmus quadricauda 21 days NOEC: 34.5 mg/L

## ivermectin
M. edulis
  EC50: 0.4 µg/mL
